Reference: PMC7265341, “Quantifying CDK inhibitor selectivity in live cells” (Nature Communications, 2020)
Where two headings read alike, the source gives them in different places.

Key:
CDK5/CDK5R1 = CDK5/CDK5R1 (Homo sapiens, UniProt Q00535); experiment: NanoBRET live-cell target engagement, CDK5-NanoLuc/CDK5R1 in HEK-293; format: binding; settings: 10µM, read-out: CDK5/CDK5R1 Inhibition at 10µM (%)
CDK11B/Cyclin L2 = CDK11B/Cyclin L2 (Homo sapiens, UniProt P21127); experiment: NanoBRET live-cell target engagement, CDK11B-NanoLuc/Cyclin L2 in HEK-293; format: binding; settings: 10µM, read-out: CDK11b/L2 Inhibition at 10µM (%)
CDK2/Cyclin E1 = CDK2/Cyclin E1 (Homo sapiens, UniProt P24941); experiment: NanoBRET live-cell target engagement, CDK2-NanoLuc/Cyclin E1 in HEK-293; format: binding; settings: 10µM, read-out: CDK2/E1 Inhibition at 10µM (%)
CDK9/Cyclin K = CDK9/Cyclin K (Homo sapiens, UniProt P50750); experiment: NanoBRET live-cell target engagement, NanoLuc-CDK9/Cyclin K in HEK-293; format: binding; settings: 10µM, read-out: CDK9/K Inhibition at 10µM (%)
CDK7 = CDK7 (Homo sapiens, UniProt P50613); experiment: NanoBRET live-cell target engagement, NanoLuc-CDK7 in HEK-293; format: binding; settings: 10µM, read-out: CDK7 Inhibition at 10µM (%)
Chain of CDK7 (P50613 whole entry): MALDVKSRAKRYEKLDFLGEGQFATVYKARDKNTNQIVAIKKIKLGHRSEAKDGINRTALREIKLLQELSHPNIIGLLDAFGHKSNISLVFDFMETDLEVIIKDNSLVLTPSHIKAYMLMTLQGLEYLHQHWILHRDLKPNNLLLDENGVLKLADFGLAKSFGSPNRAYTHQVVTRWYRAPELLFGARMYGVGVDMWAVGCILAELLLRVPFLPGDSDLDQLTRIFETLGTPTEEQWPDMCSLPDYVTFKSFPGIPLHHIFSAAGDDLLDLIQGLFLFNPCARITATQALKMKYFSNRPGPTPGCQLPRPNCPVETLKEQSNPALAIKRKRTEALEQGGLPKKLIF

CDK15/Cyclin Y = CDK15/Cyclin Y (Homo sapiens, UniProt Q96Q40); experiment: NanoBRET live-cell target engagement, NanoLuc-CDK15/Cyclin Y in HEK-293; format: binding; settings: 10µM, read-out: CDK15/Y Inhibition at 10µM (%)
Chain of CDK15/Cyclin Y (Q96Q40 whole entry): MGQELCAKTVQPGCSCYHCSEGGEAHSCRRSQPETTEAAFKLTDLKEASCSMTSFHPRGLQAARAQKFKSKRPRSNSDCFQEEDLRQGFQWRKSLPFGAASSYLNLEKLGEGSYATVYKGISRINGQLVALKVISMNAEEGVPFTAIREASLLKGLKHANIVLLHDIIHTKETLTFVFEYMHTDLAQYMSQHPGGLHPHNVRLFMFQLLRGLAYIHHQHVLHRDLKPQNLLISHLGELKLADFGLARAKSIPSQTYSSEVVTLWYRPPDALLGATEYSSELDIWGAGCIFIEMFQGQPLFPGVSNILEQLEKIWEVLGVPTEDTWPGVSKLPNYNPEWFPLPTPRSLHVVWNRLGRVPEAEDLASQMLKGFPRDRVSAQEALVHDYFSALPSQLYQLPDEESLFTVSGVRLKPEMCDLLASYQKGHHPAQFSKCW
Chain of CDK15/Cyclin Y (Q8ND76 whole entry partner): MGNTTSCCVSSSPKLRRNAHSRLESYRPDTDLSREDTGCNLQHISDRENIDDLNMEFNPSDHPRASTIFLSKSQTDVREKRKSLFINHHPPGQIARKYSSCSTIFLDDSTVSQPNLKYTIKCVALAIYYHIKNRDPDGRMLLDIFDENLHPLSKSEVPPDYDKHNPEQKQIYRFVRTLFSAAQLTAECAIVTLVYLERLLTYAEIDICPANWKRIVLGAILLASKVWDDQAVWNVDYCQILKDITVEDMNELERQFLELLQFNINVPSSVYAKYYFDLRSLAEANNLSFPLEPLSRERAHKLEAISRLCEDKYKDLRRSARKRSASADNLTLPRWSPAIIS

CDK18/Cyclin Y = CDK18/Cyclin Y (Homo sapiens, UniProt Q07002); experiment: NanoBRET live-cell target engagement, CDK18-NanoLuc/Cyclin Y in HEK-293; format: binding; settings: 10µM, read-out: CDK18/Y Inhibition at 10µM (%)
CDK20/Cyclin H = CDK20/Cyclin H (Homo sapiens, UniProt Q8IZL9); experiment: NanoBRET live-cell target engagement, NanoLuc-CDK20/Cyclin H in HEK-293; format: binding; settings: 10µM, read-out: CDK20/H Inhibition at 10µM (%)
CDK16/Cyclin Y = CDK16/Cyclin Y (Homo sapiens, UniProt Q00536); experiment: NanoBRET live-cell target engagement, CDK16-NanoLuc/Cyclin Y in HEK-293; format: binding; settings: 10µM, read-out: CDK16/Y Inhibition at 10µM (%)
CDK3/Cyclin E1 = CDK3/Cyclin E1 (Homo sapiens, UniProt Q00526); experiment: NanoBRET live-cell target engagement, CDK3-NanoLuc/Cyclin E1 in HEK-293; format: binding; settings: 10µM, read-out: CDK3/E1 Inhibition at 10µM (%)
Chain of CDK3/Cyclin E1 (Q00526 whole entry): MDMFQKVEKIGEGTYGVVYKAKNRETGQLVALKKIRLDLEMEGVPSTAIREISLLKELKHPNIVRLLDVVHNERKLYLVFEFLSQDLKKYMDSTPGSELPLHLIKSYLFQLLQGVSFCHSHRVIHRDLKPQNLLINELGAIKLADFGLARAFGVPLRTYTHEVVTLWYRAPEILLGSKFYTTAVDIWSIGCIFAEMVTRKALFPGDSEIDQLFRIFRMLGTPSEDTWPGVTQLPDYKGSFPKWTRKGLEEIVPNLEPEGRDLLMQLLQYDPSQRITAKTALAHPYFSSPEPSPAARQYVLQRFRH
Chain of CDK3/Cyclin E1 (P24864 whole entry partner): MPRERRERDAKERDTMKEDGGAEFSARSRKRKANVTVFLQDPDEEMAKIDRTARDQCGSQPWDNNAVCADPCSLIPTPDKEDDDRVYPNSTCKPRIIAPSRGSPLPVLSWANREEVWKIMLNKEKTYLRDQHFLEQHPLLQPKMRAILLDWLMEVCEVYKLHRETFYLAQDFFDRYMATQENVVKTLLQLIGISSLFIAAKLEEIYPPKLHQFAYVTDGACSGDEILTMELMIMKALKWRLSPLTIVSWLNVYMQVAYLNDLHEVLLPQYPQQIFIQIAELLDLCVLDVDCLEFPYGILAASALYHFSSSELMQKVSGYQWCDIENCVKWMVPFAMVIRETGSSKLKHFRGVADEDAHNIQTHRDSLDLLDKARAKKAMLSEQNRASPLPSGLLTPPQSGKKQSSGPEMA

CDK14/Cyclin Y = CDK14/Cyclin Y (Homo sapiens, UniProt O94921); experiment: NanoBRET live-cell target engagement, CDK14-NanoLuc/Cyclin Y in HEK-293; format: binding; settings: 10µM, read-out: CDK14/Y Inhibition at 10µM (%)
Chain of CDK14/Cyclin Y (O94921 whole entry): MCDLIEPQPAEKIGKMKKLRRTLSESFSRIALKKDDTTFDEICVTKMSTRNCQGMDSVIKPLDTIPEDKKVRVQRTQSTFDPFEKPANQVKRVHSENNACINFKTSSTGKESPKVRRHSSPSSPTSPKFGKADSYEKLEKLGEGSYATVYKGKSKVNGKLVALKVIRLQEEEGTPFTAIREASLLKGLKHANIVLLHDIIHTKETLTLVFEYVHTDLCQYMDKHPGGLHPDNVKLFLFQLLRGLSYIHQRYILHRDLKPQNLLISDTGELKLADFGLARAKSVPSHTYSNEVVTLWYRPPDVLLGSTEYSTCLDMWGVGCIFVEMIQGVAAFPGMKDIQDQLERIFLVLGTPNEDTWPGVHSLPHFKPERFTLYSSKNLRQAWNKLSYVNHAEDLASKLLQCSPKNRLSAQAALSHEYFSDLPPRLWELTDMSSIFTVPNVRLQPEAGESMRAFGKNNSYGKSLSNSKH
Chain of CDK14/Cyclin Y (Q8ND76 whole entry partner): as the sequence (Q8ND76 whole entry partner) above

CDK10/Cyclin L2 = CDK10/Cyclin L2 (Homo sapiens, UniProt Q15131); experiment: NanoBRET live-cell target engagement, CDK10-NanoLuc/Cyclin L2 in HEK-293; settings: read-out: CDK10/L2 Inhibition at 10µM (%), 10µM
Chain of CDK10/Cyclin L2 (Q15131 whole entry): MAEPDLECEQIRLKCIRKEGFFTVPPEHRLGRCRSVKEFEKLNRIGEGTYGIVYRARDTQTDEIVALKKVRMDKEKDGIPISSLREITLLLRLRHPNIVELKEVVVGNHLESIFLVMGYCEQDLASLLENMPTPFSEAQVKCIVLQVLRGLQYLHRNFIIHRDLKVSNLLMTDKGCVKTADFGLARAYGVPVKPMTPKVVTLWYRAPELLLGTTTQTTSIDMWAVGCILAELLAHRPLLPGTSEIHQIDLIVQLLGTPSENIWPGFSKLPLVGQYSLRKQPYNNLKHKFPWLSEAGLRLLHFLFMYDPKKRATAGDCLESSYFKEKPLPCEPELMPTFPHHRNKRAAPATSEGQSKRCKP

CDK17/Cyclin Y = CDK17/Cyclin Y (Homo sapiens, UniProt Q00537); experiment: NanoBRET live-cell target engagement, CDK17-NanoLuc/Cyclin Y in HEK-293; format: binding; settings: 10µM, read-out: CDK17/Y Inhibition at 10µM (%)
Chain of CDK17/Cyclin Y (Q00537 whole entry): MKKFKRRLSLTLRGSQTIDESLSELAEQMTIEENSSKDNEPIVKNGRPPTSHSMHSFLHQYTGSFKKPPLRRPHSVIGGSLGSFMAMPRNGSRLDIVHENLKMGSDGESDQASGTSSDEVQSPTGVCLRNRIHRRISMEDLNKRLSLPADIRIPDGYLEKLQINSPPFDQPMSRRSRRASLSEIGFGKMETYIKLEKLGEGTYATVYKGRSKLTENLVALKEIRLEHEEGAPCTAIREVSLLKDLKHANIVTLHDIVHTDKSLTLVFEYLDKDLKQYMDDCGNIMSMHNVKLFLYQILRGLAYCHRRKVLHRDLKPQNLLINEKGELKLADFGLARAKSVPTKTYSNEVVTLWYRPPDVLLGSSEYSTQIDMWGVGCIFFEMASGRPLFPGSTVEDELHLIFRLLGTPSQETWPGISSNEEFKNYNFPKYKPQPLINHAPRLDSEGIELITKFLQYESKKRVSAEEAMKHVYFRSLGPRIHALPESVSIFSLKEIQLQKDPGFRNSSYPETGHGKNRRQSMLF
Chain of CDK17/Cyclin Y (Q8ND76 whole entry partner): as the sequence (Q8ND76 whole entry partner) above

CDK11A/Cyclin L2 = target: T1, CDK11A/Cyclin L2 (Homo sapiens, UniProt Q9UQ88); experiment: NanoBRET live-cell target engagement, CDK11A-NanoLuc/Cyclin L2 in HEK-293; format: binding; settings: 10µM, read-out: CDK11a/L2 Inhibition at 10µM (%)
T1 sequence (Q9UQ88 1-783): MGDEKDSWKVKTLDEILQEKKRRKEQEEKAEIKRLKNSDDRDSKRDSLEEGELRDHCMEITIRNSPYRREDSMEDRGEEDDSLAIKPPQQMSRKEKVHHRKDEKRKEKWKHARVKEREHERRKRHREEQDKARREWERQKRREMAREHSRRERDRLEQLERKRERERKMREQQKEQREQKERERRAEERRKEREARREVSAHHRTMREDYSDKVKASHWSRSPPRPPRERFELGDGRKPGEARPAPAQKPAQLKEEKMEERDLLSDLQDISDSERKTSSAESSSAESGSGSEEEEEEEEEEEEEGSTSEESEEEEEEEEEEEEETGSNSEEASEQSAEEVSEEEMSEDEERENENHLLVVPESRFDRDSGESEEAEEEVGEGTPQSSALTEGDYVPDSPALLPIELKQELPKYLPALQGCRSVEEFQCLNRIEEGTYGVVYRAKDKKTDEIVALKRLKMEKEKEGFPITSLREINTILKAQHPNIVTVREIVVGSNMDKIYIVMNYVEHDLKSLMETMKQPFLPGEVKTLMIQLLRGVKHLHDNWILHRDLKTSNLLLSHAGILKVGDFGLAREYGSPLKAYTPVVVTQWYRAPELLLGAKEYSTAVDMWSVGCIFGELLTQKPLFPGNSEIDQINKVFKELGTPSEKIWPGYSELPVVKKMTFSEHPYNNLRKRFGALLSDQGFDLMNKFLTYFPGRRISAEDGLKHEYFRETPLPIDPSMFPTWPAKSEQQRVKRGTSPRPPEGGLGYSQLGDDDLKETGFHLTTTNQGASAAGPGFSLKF

CDK19/Cyclin C = CDK19/Cyclin C (Homo sapiens, UniProt Q9BWU1); experiment: NanoBRET live-cell target engagement, NanoLuc-CDK19/Cyclin C in HEK-293; settings: read-out: CDK19/C Inhibition at 10µM (%), 10µM
CDK8/Cyclin C = CDK8/Cyclin C (Homo sapiens, UniProt P49336); experiment: NanoBRET live-cell target engagement, NanoLuc-CDK8/Cyclin C in HEK-293; format: binding; settings: 10µM, read-out: CDK8/C Inhibition at 10µM (%)
CDK1/Cyclin E1 = CDK1/Cyclin E1 (Homo sapiens, UniProt P06493); experiment: NanoBRET live-cell target engagement, CDK1-NanoLuc/Cyclin E1 in HEK-293; format: binding; settings: 10µM, read-out: CDK1/E1 Inhibition at 10µM (%)
Chain of CDK1/Cyclin E1 (P06493 whole entry): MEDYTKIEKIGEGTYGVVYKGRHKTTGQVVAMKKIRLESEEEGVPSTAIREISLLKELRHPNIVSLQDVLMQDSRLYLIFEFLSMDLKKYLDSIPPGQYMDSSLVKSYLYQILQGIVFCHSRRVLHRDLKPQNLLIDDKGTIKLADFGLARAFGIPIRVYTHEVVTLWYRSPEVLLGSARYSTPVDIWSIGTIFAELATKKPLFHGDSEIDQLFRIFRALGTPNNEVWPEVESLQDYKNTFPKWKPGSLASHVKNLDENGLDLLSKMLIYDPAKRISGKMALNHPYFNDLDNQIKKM
Chain of CDK1/Cyclin E1 (P24864 whole entry partner): as the sequence (P24864 whole entry partner) above

CDK4/Cyclin D1 = CDK4/Cyclin D1 (Homo sapiens, UniProt P11802); experiment: NanoBRET live-cell target engagement, NanoLuc-CDK4/Cyclin D1 in HEK-293; format: binding; settings: 10µM, read-out: CDK4/D1 Inhibition at 10µM (%)
Chain of CDK4/Cyclin D1 (P11802 whole entry): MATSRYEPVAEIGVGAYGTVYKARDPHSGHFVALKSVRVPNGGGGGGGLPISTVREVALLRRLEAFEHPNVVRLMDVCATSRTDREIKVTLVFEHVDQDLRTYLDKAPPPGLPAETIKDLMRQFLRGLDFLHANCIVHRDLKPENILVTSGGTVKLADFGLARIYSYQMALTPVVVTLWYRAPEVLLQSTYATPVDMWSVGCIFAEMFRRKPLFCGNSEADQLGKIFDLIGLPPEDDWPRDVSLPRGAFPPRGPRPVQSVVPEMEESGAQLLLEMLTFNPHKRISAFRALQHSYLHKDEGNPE
Chain of CDK4/Cyclin D1 (P24385 whole entry partner): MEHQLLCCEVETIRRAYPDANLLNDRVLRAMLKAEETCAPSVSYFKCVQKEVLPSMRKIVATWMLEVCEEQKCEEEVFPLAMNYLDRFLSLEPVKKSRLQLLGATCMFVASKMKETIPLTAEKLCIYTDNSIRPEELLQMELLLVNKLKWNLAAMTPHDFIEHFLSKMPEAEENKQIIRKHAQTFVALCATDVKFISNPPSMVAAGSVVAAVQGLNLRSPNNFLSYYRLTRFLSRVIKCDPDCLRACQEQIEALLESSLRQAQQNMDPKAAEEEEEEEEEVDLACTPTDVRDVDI

CDK6/Cyclin D1 = CDK6/Cyclin D1 (Homo sapiens, UniProt Q00534); experiment: NanoBRET live-cell target engagement, NanoLuc-CDK6/Cyclin D1 in HEK-293; format: binding; settings: 10µM, read-out: CDK6/D1 Inhibition at 10µM (%)

Chain of CDK5/CDK5R1 (Q00535 whole entry): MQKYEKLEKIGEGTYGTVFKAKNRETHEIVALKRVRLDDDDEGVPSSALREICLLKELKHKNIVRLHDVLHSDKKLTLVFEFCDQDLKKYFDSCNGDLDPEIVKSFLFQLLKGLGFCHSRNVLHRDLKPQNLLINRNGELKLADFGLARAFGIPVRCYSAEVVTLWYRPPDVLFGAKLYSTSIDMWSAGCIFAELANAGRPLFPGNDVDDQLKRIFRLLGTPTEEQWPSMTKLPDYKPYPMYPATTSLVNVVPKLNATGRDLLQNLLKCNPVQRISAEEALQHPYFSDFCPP
Chain of CDK5/CDK5R1 (Q15078 whole entry partner): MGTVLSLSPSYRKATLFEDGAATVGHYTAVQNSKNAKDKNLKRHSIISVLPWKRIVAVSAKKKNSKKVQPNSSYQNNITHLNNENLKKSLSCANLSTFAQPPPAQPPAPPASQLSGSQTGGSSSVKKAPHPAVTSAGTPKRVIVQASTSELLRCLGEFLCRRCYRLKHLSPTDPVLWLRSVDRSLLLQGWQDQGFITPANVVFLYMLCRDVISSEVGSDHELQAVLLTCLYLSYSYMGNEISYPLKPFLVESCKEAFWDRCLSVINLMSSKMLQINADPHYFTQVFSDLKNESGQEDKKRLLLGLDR

CC(C)[C@H](CO)Nc1nc(Nc2ccc(C(=O)O)c(Cl)c2)c2ncn(C(C)C)c2n1 [Purvalanol B]
inhibition at 10 µM (CDK5/CDK5R1; average of experiments): 63.7% | inhibition at 10 µM (CDK5/CDK5R1; independent experiment 1): 36.3% | inhibition at 10 µM (CDK5/CDK5R1; independent experiment 2): 91% | inhibition at 10 µM (CDK11B/Cyclin L2; average of experiments): 3.9% | inhibition at 10 µM (CDK11B/Cyclin L2; independent experiment 1): 7.1% | inhibition at 10 µM (CDK11B/Cyclin L2; independent experiment 2): 0.8% | inhibition at 10 µM (CDK2/Cyclin E1; average of experiments): 66.9% | inhibition at 10 µM (CDK2/Cyclin E1; independent experiment 1): 79.7% | inhibition at 10 µM (CDK2/Cyclin E1; independent experiment 2): 54% | inhibition at 10 µM (CDK9/Cyclin K; average of experiments): 8.4% | inhibition at 10 µM (CDK9/Cyclin K; independent experiment 1): -0.3% | inhibition at 10 µM (CDK9/Cyclin K; independent experiment 2): 17.1% | inhibition at 10 µM (CDK7; average of experiments): -0.0779% | inhibition at 10 µM (CDK7; independent experiment 1): -0.361% | inhibition at 10 µM (CDK7; independent experiment 2): 0.2% | inhibition at 10 µM (CDK15/Cyclin Y; average of experiments): 0.0365% | inhibition at 10 µM (CDK15/Cyclin Y; independent experiment 1): 4.9% | inhibition at 10 µM (CDK15/Cyclin Y; independent experiment 2): -4.9% | inhibition at 10 µM (CDK18/Cyclin Y; average of experiments): 5.4% | inhibition at 10 µM (CDK18/Cyclin Y; independent experiment 1): -4.7% | inhibition at 10 µM (CDK18/Cyclin Y; independent experiment 2): 15.4% | inhibition at 10 µM (CDK20/Cyclin H; independent experiment 1): -3.3% | inhibition at 10 µM (CDK20/Cyclin H; independent experiment 2): -1.2% | inhibition at 10 µM (CDK16/Cyclin Y; independent experiment 1): 11.3% | inhibition at 10 µM (CDK16/Cyclin Y; independent experiment 2): -5.5% | inhibition at 10 µM (CDK3/Cyclin E1; average of experiments): 39.4% | inhibition at 10 µM (CDK3/Cyclin E1; independent experiment 1): 41.5% | inhibition at 10 µM (CDK3/Cyclin E1; independent experiment 2): 37.2% | inhibition at 10 µM (CDK14/Cyclin Y; average of experiments): -0.116% | inhibition at 10 µM (CDK14/Cyclin Y; independent experiment 1): -3.3% | inhibition at 10 µM (CDK14/Cyclin Y; independent experiment 2): 3.1% | inhibition at 10 µM (CDK10/Cyclin L2; average of experiments): -1.9% | inhibition at 10 µM (CDK10/Cyclin L2; independent experiment 1): -2.4% | inhibition at 10 µM (CDK10/Cyclin L2; independent experiment 2): -1.5% | inhibition at 10 µM (CDK17/Cyclin Y; average of experiments): 2.5% | inhibition at 10 µM (CDK17/Cyclin Y; independent experiment 1): 0.32% | inhibition at 10 µM (CDK17/Cyclin Y; independent experiment 2): 4.7% | inhibition at 10 µM (CDK11A/Cyclin L2; average of experiments): -4.5% | inhibition at 10 µM (CDK11A/Cyclin L2; independent experiment 1): -2.4% | inhibition at 10 µM (CDK11A/Cyclin L2; independent experiment 2): -6.6% | inhibition at 10 µM (CDK19/Cyclin C; average of experiments): 8% | inhibition at 10 µM (CDK19/Cyclin C; independent experiment 1): 12.7% | inhibition at 10 µM (CDK19/Cyclin C; independent experiment 2): 3.4% | inhibition at 10 µM (CDK8/Cyclin C; average of experiments): 1.6% | inhibition at 10 µM (CDK8/Cyclin C; independent experiment 1): 3.2% | inhibition at 10 µM (CDK8/Cyclin C; independent experiment 2): -0.0599% | inhibition at 10 µM (CDK1/Cyclin E1; average of experiments): 21.2% | inhibition at 10 µM (CDK1/Cyclin E1; independent experiment 1): 18.1% | inhibition at 10 µM (CDK1/Cyclin E1; independent experiment 2): 24.3% | inhibition at 10 µM (CDK4/Cyclin D1; average of experiments): -37.2% | inhibition at 10 µM (CDK4/Cyclin D1; independent experiment 1): 8.3% | inhibition at 10 µM (CDK4/Cyclin D1; independent experiment 2): -82.7% | inhibition at 10 µM (CDK6/Cyclin D1; average of experiments): -0.5% | inhibition at 10 µM (CDK6/Cyclin D1; independent experiment 1): 5.9% | inhibition at 10 µM (CDK6/Cyclin D1; independent experiment 2): -7%
